Assay results reported in patent publication US6218367A, “Paclitaxel-carbohydrate conjugates: design, synthesis and biological evaluations” (Organomed Corporation, priority 1999, dated 2001).
Read-outs that look alike come from different tables or passages of the source.

Legend:
[1] = test system: SNB-75; assay: NCI in vitro human tumor cell line screen, CNS cancer; assay type: cell-based; conditions: for GI50: Homo sapiens
Protocol: (§1) Compounds were tested as described (Monks, A. et al., (1991). J. Nat. Cancer Int., 83, 757-766; Boyd, M. R., and Paull, K. D., (1995) "Some practical considerations and applications of the National Cancer Institute In Vitro Anticancer Drug Discovery Program", Drug Development Res., 34, 91-109 in the NCI in vitro human tumor cell line screen). The compounds were examined in 60 different cell lines. The following definitions are based on the National Cancer Institute in vitro screen protocol (Boyd, M. R., and Paull, K. D., (1995) "Some practical considerations and applications of the National Cancer Institute In Vitro Anticancer Drug Discovery Screen", ibid., 34, 91-109).
(§2) The "50% growth inhibition" parameter (GI50) is the concentration of test drug where: [formula]
(§3) T is the optical density of the test well after 48 hours drug exposure, T0 is the optical density at time zero, and C is the control optical density, PG is the "percent growth". It is a T/C like parameter that can have values from +100 to -100.
(§4) Total Growth Inhibition (TGI) signifies the cytostatic level effect: [formula]
(§5) The GI50, TGI and LC50 values were calculated by interpolation using the tested concentrations that give PG values above and below the response reference values (e.g. 50 for GI50). Dose-response curves are compared for compound 1 and paclitaxel for breast cancer, ovarian cancer, CNS cancer and non-small lung cancer in FIGS. 1-4 respectively.

[2] = test system: various cancer cell lines; assay: NCI in vitro human tumor cell line screen, various cancer cell lines; assay type: cell-based; conditions: for IC (TGI): Homo sapiens, 48 h, read-out: TGI values (concentrations), order of magnitude
Protocol: as §1, §2, §3, §4
The LC50 is the lethal dose concentration, "net cell killing" or cytotoxicity parameter: [formula]
as §5

[3] = test system: ovarian cancer cell lines; assay: NCI screen, ovarian cancer cell lines as a group; assay type: cell-based, human; conditions: for GI50: Homo sapiens, read-out: GI50 values, range
[4] = test system: SF-268; assay: NCI in vitro human tumor cell line screen, CNS cancer; assay type: cell-based; conditions: for GI50: Homo sapiens
[5] = test system: breast cancer cell lines; assay: NCI screen, breast cancer cell lines as a group; assay type: cell-based, human; conditions: for GI50: Homo sapiens, 48 h, read-out: GI50 values, range
[6] = test system: COLO205; assay: NCI in vitro human tumor cell line screen, colon cancer; assay type: cell-based
[7] = test system: MOLT-2; assay: NCI in vitro human tumor cell line screen, leukemia; assay type: cell-based; conditions: MOLT-2, leukemia, 48 hours
[8] = test system: NCI-H226; assay: NCI in vitro human tumor cell line screen, non small lung cancer; assay type: cell-based; conditions: 48 hours
[9] = test system: RXF-393; assay: NCI in vitro human tumor cell line screen, renal cancer; assay type: cell-based
[10] = test system: OVCAR-5; assay: NCI in vitro human tumor cell line screen, ovarian cancer; assay type: cell-based
[11] = test system: SF-539; assay: NCI in vitro human tumor cell line screen, CNS cancer; assay type: cell-based; conditions: SF-539, CNS cancer, 48 hours
[12] = test system: CNS cancer; assay: NCI screen, CNS cancer dose response curves; assay type: cell-based, human; conditions: FIG. 3, vs paclitaxel
[13] = test system: HS578T; assay: NCI in vitro human tumor cell line screen, breast cancer; assay type: cell-based; conditions: Hs-578T
Protocol: as §1, §2, §3, §4, §5

[14] = test system: MDA-N; assay: as above; assay type: cell-based
Protocol: as §1, §2, §3, §4, §5

[15] = test system: MDA-MB-435; assay: as above; assay type: cell-based; conditions: 48 h, MDA-MB-435, breast cancer, read-out: TGI (total growth inhibition)
Protocol: as §1, §2, §3, §4, §5

[16] = test system: T-47D; assay: as above; assay type: cell-based
[17] = test system: HT-29; assay: NCI in vitro human tumor cell line screen, colon cancer; assay type: cell-based
Protocol: as §1, §2, §3, §4, §5

[18] = test system: A549/ATCC; assay: NCI in vitro human tumor cell line screen, non small lung cancer; assay type: cell-based; conditions: 48 hours
[19] = test system: CCRF-CEM; assay: NCI in vitro human tumor cell line screen, leukemia; assay type: cell-based
[20] = test system: HCT-116; assay: NCI in vitro human tumor cell line screen, colon cancer; assay type: cell-based; conditions: HCT-116, colon cancer, 48 hours
[21] = test system: EKVX; assay: NCI in vitro human tumor cell line screen, non small lung cancer; assay type: cell-based; conditions: 48 hours
[22] = Water solubility as equilibrium concentration by HPLC
Protocol: The water solubility of compound 1 was determined as an equilibrium concentration at room temperature using HPLC measurements.

[23] = test system: NCI-H23; assay: NCI in vitro human tumor cell line screen, non small lung cancer; assay type: cell-based
[24] = test system: PC-3; assay: NCI in vitro human tumor cell line screen, prostate cancer; assay type: cell-based
[25] = test system: NCI-H522; assay: NCI in vitro human tumor cell line screen, non small lung cancer; assay type: cell-based; conditions: 48 hours
[26] = test system: SW-620; assay: NCI in vitro human tumor cell line screen, colon cancer; assay type: cell-based; conditions: SW-620, colon cancer, 48 hours
[27] = test system: DU-145; assay: NCI in vitro human tumor cell line screen, prostate cancer; assay type: cell-based
[28] = test system: U251; assay: NCI in vitro human tumor cell line screen, CNS cancer; assay type: cell-based; conditions: U-251, 48 hours
[29] = test system: ADR-RES; assay: NCI in vitro human tumor cell line screen, breast cancer; assay type: cell-based; conditions: vs paclitaxel
[30] = test system: SF-295; assay: NCI in vitro human tumor cell line screen, CNS cancer; assay type: cell-based
[31] = test system: NCI-H322M; assay: NCI in vitro human tumor cell line screen, non small lung cancer; assay type: cell-based; conditions: 48 hours
[32] = test system: HCT-15; assay: NCI in vitro human tumor cell line screen, colon cancer; assay type: cell-based
[33] = test system: MCF-7; assay: NCI in vitro human tumor cell line screen, breast cancer; assay type: cell-based
[34] = test system: SNB-19; assay: NCI in vitro human tumor cell line screen, CNS cancer; assay type: cell-based; conditions: SNB-19, CNS cancer, 48 hours
[35] = test system: 786-0; assay: NCI in vitro human tumor cell line screen, renal cancer; assay type: cell-based
[36] = test system: HOP-62; assay: NCI in vitro human tumor cell line screen, non small lung cancer; assay type: cell-based; conditions: HOP-62, non small lung cancer, 48 hours
[37] = test system: SK-OV-3; assay: NCI in vitro human tumor cell line screen, ovarian cancer; assay type: cell-based; conditions: SK-OV-3, ovarian cancer, 48 hours
[38] = test system: UACC-62; assay: NCI in vitro human tumor cell line screen, melanoma; assay type: cell-based; conditions: UACC-62, melanoma, vs paclitaxel
[39] = test system: SN12C; assay: NCI in vitro human tumor cell line screen, renal cancer; assay type: cell-based
[40] = test system: HL-60TB; assay: NCI in vitro human tumor cell line screen, leukemia; assay type: cell-based
[41] = test system: non-small cell lung cancer; assay: NCI screen, non-small cell lung cancer dose response curves; assay type: cell-based, human; conditions: FIG. 4, vs paclitaxel
[42] = test system: IGROVI; assay: NCI in vitro human tumor cell line screen, ovarian cancer; assay type: cell-based; conditions: vs paclitaxel
[43] = test system: HCC-2998; assay: NCI in vitro human tumor cell line screen, colon cancer; assay type: cell-based; conditions: HCC-2998, colon cancer, 48 hours
[44] = test system: OVCAR-3; assay: NCI in vitro human tumor cell line screen, ovarian cancer; assay type: cell-based
[45] = test system: OVCAR-8; assay: as above; assay type: cell-based; conditions: OVCAR-8, ovarian cancer, 48 hours
[46] = test system: RPMI-8226; assay: NCI in vitro human tumor cell line screen, leukemia; assay type: cell-based; conditions: RPMI-8226, leukemia, 48 hours
[47] = 48 h, read-out: TGI (total growth inhibition)

## CC(=O)O[C@H]1C(=O)[C@@]2(C)[C@H]([C@H](OC(=O)c3ccccc3)[C@]3(O)C[C@H](OC(=O)[C@H](O)[C@@H](NC(=O)c4ccccc4)c4ccccc4)C(C)=C1C3(C)C)[C@]1(OC(C)=O)CO[C@@H]1C[C@@H]2O [paclitaxel]
[1]; SNB-75, 48 h
  GI50: 13.6 nM
[2]
  IC (TGI): 10 to 100 nM
[3]; 48 h
  GI50: 1 to 10 nM
[4]; SF-268, 48 h
  GI50: 7.61 nM
[5]
  GI50: 10 to 100 nM

## CC(=O)OC1C(=O)C2(C)C(O)CC3OCC3(OC(C)=O)C2C(OC(=O)c2ccccc2)C2(O)CC(OC(=O)C(OC(=O)CCC(=O)NCCCC(=O)OC3C(O)C(O)OC(CO)C3O)C(NC(=O)c3ccccc3)c3ccccc3)C(C)=C1C2(C)C (stereo not drawn) [chackol, (3-glucose) GABA paclitaxel succinate]
[6]; COLO25 (so in the source), vs paclitaxel
  times more active than paclitaxel (GI50): 19 times
[6]; Homo sapiens, COLO 205, COLO205, colon cancer, 48 hours
  GI50: 0.247 nM
[1]; SNB-75, CNS cancer, 48 hours, read-out: GI50
  GI50: 0.21 nM
[1]; SNB-75, CNS cancer, vs paclitaxel
  times more active than paclitaxel (TGI): 67 times
[1]; SNB-75, vs paclitaxel
  times more active than paclitaxel (GI50): 65 times
[7]
  GI50: 0.487 nM
[2]; on the order of, various cancer cell lines
  IC (TGI): ~0.1 nM
[2]; breast, ovarian, CNS, non-small lung cancer, FIGS. 1-4
  dose response curves compared with paclitaxel: extend one log unit lower
[2]; in general, vs paclitaxel
  growth inhibition (GI50) compared with paclitaxel: active at a much lower concentration as compared to paclitaxel
[2]; various cancer cell lines, vs paclitaxel
  total growth inhibition compared with paclitaxel: more active than paclitaxel
[3]; ovarian lines OVCAR-3, OVCAR-5 and IGROVI
  GI50: ~0.1 nM
[3]; ovarian cancer, FIG. 2, vs paclitaxel
  dose response curve compared with paclitaxel: extend one log unit lower than those for paclitaxel
[8]
  GI50: 0.419 nM
[9]; Homo sapiens, RXF-393, renal cancer, 48 hours
  GI50: 0.496 nM
[9]; RXF-393, vs paclitaxel
  times more active than paclitaxel (GI50): 23 times
[10]; Homo sapiens, OVCAR-5, ovarian cancer, 48 hours
  GI50: 0.156 nM
[10]; OVCAR-5, vs paclitaxel
  times more active than paclitaxel (GI50): 32 times
[11]
  GI50: 0.22 nM
[12]
  dose response curve compared with paclitaxel: extend one log unit lower than those for paclitaxel
[13]; [47]
  IC (TGI): 0.592 nM
[13]; 48 hours
  GI50: 0.18 nM
[14]; [47]
  IC (TGI): 0.294 nM
[14]; 48 hours
  GI50: 0.105 nM
[15]
  IC (TGI): 0.215 nM
[16]; Homo sapiens, T47D, breast cancer, 48 hours
  GI50: 0.804 nM
[16]; vs paclitaxel
  times more active than paclitaxel (GI50): 14 times
[17]; HT-29, colon cancer, vs paclitaxel
  times more active than paclitaxel (TGI): 303 times
[17]; HT-29, vs paclitaxel
  times more active than paclitaxel (GI50): 40 times
[17]; Homo sapiens, HT-29, colon cancer, 48 hours
  GI50: 0.127 nM
[18]
  GI50: 0.575 nM
[19]; Homo sapiens, leukemia, 48 hours
  GI50: 0.313 nM
[19]; vs paclitaxel
  times more active than paclitaxel (GI50): 8 times
[20]
  GI50: 0.228 nM
[21]
  GI50: 1.98 nM
[22]
  solubility: 240 µg/mL
[23]; Homo sapiens, NCI-H23, non small lung cancer, 48 hours
  GI50: 0.428 nM
[23]; NCI-H23, vs paclitaxel
  times more active than paclitaxel (GI50): 107 times
[24]; Homo sapiens, PC-3, prostate cancer, 48 hours
  GI50: 0.276 nM
[24]; PC-3, vs paclitaxel
  times more active than paclitaxel (GI50): 10 times
[25]
  GI50: 0.184 nM
[26]
  GI50: 0.348 nM
[27]; DU-145, vs paclitaxel
  times more active than paclitaxel (GI50): 12 times
[27]; Homo sapiens, DU-145, prostate cancer, 48 hours
  GI50: 0.401 nM
[28]
  GI50: 0.363 nM
[29]
  times more active than paclitaxel (GI50): 23 times
[30]; Homo sapiens, SF-295, CNS cancer, 48 hours
  GI50: 1.44 nM
[30]; SF-295, vs paclitaxel
  times more active than paclitaxel (GI50): 25 times
[31]
  GI50: 0.593 nM
[32]; HCT-15, vs paclitaxel
  times more active than paclitaxel (GI50): 7 times
[32]; Homo sapiens, HCT-15, colon cancer, 48 hours
  GI50: 27.9 nM
[33]; Homo sapiens, MCF7, MCF-7, breast cancer, 48 hours
  GI50: 0.256 nM
[33]; MCF-7, vs paclitaxel
  times more active than paclitaxel (GI50): 15 times
[4]; SF-268, CNS cancer, 48 hours, read-out: GI50
  GI50: 0.275 nM
[4]; SF-268, vs paclitaxel
  times more active than paclitaxel (GI50): 28 times
[34]
  GI50: 0.354 nM
[5]; breast lines MCF-7, ADR-RES and T-47D
  GI50: 0.1 to 10 nM
[5]; breast cancer, FIG. 1, vs paclitaxel
  dose response curve compared with paclitaxel: extend one log unit lower than those for paclitaxel
[35]; 786-0, vs paclitaxel
  times more active than paclitaxel (GI50): 11 times
[35]; Homo sapiens, 786-0, renal cancer, 48 hours
  GI50: 1.33 nM
[36]
  GI50: 1.13 nM
[37]
  GI50: 0.502 nM
[38]
  times more active than paclitaxel (GI50): 1490 times
[39]; Homo sapiens, renal cancer, 48 hours
  GI50: 0.481 nM
[39]; vs paclitaxel
  times more active than paclitaxel (GI50): 16 times
[40]; HL-60 (TB), vs paclitaxel
  times more active than paclitaxel (GI50): 8 times
[40]; Homo sapiens, HL-60TB, leukemia, 48 hours
  GI50: 0.249 nM
[41]
  dose response curve compared with paclitaxel: extend one log unit lower than those for paclitaxel
[42]
  times more active than paclitaxel (GI50): 45 times
[43]
  GI50: 0.152 nM
[44]; Homo sapiens, OVCAR-3, ovarian cancer, 48 hours
  GI50: 0.266 nM
[44]; OVCAR-3, vs paclitaxel
  times more active than paclitaxel (GI50): 18 times
[45]
  GI50: 0.437 nM
[46]
  GI50: 0.266 nM
